The values that follow come from article PMC12128885, “Myricetin-bound crystal structure of the SARS-CoV-2 helicase NSP13 facilitates the discovery of novel natural inhibitors” (Acta Crystallographica Section D: Structural Biology, 2025).

“Also recorded” adds a separate entry of the source. Like-named read-outs stand apart in the source and are kept apart here.

Experiment [1] deals with Wuhan-like SARS-CoV-2 strain. The experiment is described as follows: microbe, parasite or virus in culture. Format: cell-based.
For the next experiment, the system named is main protease (NSP5). To be noted: 2024, cited from earlier work.
The target of a further experiment is spike protein. The following applies: read-out: Kd, spike protein; ref Su et al., 2021; Pan et al., 2023; Kuzikov et al., 2024; cited from earlier work.
Experiment [2] deals with RNA-dependent RNA polymerase (NSP12). The arrangement: method as in Su et al., 2021; Pan et al., 2023; Kuzikov et al., 2024. The following applies: ref Su et al., 2021; Pan et al., 2023; Kuzikov et al., 2024; cited from earlier work.

Turning to `O=c1nc(NO)ccn1[C@@H]1O[C@H](CO)[C@@H](O)[C@H]1O` [NHC, β-D-N4-hydroxycytidine, reference compound], in experiment [1] (Vero E6 cells, MOI 0.3, 48 h, compound 1 h before infection, read-out: IC50, infection assay (percentage of infected cells)), the IC50 (commonly the point on the concentration scale where inhibition reaches its midpoint) turned out to be 0.745 µM.
On to `O=C(/C=C/c1ccc(O)c(O)c1)O[C@H](Cc1ccc(O)c(O)c1)C(=O)O` [Rosmarinic acid, (2R)-3-(3,4-Dihydroxyphenyl)-2-[(E)-3-(3,4-dihydroxyphenyl)prop-2-enoyl]oxypropanoic acid], for which the IC50 is 59.3 µM in experiment [1] (Severe acute respiratory syndrome coronavirus 2, Vero C1008, read-out: IC50, infection assay (percentage of infected cells)) and 2.18 µM in the experiment on main protease (NSP5) (noncovalent binding to active site, ref Li et al., read-out: IC50, NSP5).
As for `O=C(/C=C/c1ccc(O)c(O)c1)O[C@@H]1C[C@](O)(C(=O)O)C[C@@H](O)[C@H]1O` [Chlorogenic acid, (1S,3R,4R,5R)-3-[(E)-3-(3,4-Dihydroxyphenyl)prop-2-enoyl]oxy-1,4,5-trihydroxycyclohexane-1-carboxylic acid], the “IC50, infection assay (percentage of infected cells)” value in experiment [1] (Vero E6 cells, MOI 0.3, 48 h, compound 1 h before infection) was “no significant effect; also recorded: no significant inhibition”.
For the compound `O=c1c(O)c(-c2cc(O)c(O)c(O)c2)oc2cc(O)cc(O)c12` [Myricetin, 3,5,7-Trihydroxy-2-(3,4,5-trihydroxyphenyl)chromen-4-one], the IC50 in the experiment with main protease (NSP5) (ref Su et al., 2021, Pan et al., 2023, Kuzikov et al., read-out: IC50, main protease (NSP5)) was 0.63 µM; in experiment [2], 0.86 µM. For the same compound, on spike protein, the Kd – broadly, the concentration at which binding is half-saturated – was 2.67 µM.
